Data as given in paper PMC6717004 (Toxicology in vitro : an international journal published in …, 2019).
Read-outs that look alike come from different tables or passages of the source. Marks after values point to notes of the source that are not given here.

Tests used:
[1] = tested on: human plasma; conditions: cited from earlier work; for reported Fub based on RED: human plasma, ref Wetmore et al.
[2] = tested on: pooled human plasma; experiment: Rapid Equilibrium Dialysis; type: in vitro ADME; conditions: 10 μM, 37 °C, 4 hours, 8K MWCO membrane
[3] = type: in vitro ADME; conditions: RED with PBS in both chambers, 10 μM, 4 hours, 8K MWCO
[4] = tested on: human plasma; conditions: ref Musteata et al., 2006; cited from earlier work
[5] = tested on: pooled human plasma; experiment: Solid Phase Micro-Extraction; type: in vitro ADME; conditions: 10 μM, room temperature, C18 fibers
[6] = ref Wetmore, 2015, Wetmore et al., 2012

For `c1cc2c3c(cccc3c1)CC2` [Acenaphthene], the “Literature % unbound (equilibrium dialysis)” value [1, 6] is listed as 4.5%^b.

For `c1ccc(-c2ccccc2)cc1` [Biphenyl], the “Literature % unbound (equilibrium dialysis)” value [1] is listed as 1.6%^b.

In the case of `CNC(=O)Oc1cccc2ccccc12` [Carbaryl], the “reported Fub based on RED” value [1]; 2012 is listed as 70% and the “Literature % unbound (equilibrium dialysis)” value [1, 6] is listed as 69%^b.

In the case of `COc1cc(N)c(Cl)cc1C(=O)NC1CCN(CCCOc2ccc(F)cc2)CC1OC` (stereo not drawn) [Cisapride, reference compound], the “Literature % unbound (equilibrium dialysis)” value ([1]; ref FDA package insert) is listed as 2-3%^c and the “unbound fraction (Fub) by RED” value [2] is listed as “most highly bound”.

For `CC(C)NCC(O)c1ccc(O)c(O)c1` (stereo not drawn) [Isoproterenol, reference compound], the “Literature % unbound (equilibrium dialysis)” value ([1]; ref Kelly and McDevitt, 1978) is given as 35%^a and the “unbound fraction (Fub) by RED” value [2] is given as “mostly free”.

In the case of `c1ccc2ccccc2c1` [Naphthalene], the “protein-free free fraction (equilibration percentage)” value [3] is listed as over 80% and the “reported Fub based on RED” value [1]; 2012 is listed as ~ 2%.

In the case of `CC1(C)C(C=C(Cl)Cl)C1C(=O)OCc1cccc(Oc2ccccc2)c1` (stereo not drawn) [Permethrin], the “reported Fub based on RED” value [1]; 2012 is given as 0%.

For `Cc1nc(N(C)C)nc(OC(=O)N(C)C)c1C` [Pirimicarb], the “Literature % unbound (equilibrium dialysis)” value [1, 6] is given as 16%^b.

In the case of `CC(C)NCC(O)COc1cccc2ccccc12` (stereo not drawn) [Propranolol], the “Literature % unbound (SPME)” value [4] is given as 25%^e and the “unbound fraction (Fub) by SPME” value [5] is given as “consistent with the reported value”.

In the case of `c1cc2ccc3cccc4ccc(c1)c2c34` [Pyrene], the “Literature % unbound (equilibrium dialysis)” value [1, 6] is listed as 2.4%^b.
